Test results: ChEMBL document CHEMBL4428131, “Scaffold-hopping from xanthines to tricyclic guanines: A case study of dipeptidyl peptidase 4 (DPP4) inhibitors” (Bioorg Med Chem, 2016)

How the values were obtained:
Prolyl endopeptidase FAP = molecular target: T1, Prolyl endopeptidase FAP (Homo sapiens, UniProt Q12884); assay: Inhibition of FAP (unknown origin) using Nle-Pro-AMC as substrate preincubated for 20 mins followed by substrate addition measured after 40 mins by fluorescence assay
T1 sequence (Q12884 whole entry): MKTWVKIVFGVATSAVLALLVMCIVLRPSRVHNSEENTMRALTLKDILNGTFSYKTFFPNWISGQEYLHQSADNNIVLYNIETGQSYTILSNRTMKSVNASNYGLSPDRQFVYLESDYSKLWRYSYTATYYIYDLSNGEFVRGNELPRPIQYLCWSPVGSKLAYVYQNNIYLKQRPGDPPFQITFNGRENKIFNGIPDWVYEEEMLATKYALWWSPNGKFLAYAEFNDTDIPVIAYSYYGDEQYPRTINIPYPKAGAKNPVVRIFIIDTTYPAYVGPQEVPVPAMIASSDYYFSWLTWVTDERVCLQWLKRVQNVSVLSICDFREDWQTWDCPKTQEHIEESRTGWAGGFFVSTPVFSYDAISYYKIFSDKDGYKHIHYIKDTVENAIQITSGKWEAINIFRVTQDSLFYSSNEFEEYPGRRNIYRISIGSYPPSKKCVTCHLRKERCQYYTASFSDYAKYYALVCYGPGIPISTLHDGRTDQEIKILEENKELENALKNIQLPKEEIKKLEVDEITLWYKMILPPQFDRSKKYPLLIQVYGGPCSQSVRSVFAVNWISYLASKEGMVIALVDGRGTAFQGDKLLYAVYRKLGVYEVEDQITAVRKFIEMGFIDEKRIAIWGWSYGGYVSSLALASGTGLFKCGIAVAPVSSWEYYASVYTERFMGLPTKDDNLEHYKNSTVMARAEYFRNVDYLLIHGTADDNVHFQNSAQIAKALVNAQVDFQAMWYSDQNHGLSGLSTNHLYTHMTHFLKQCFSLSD

Dipeptidyl peptidase 4 = Dipeptidyl peptidase 4 (Homo sapiens, UniProt P27487); assay: Inhibition of DPP4 (unknown origin) using Gly-Pro-AMC as substrate preincubated for 30 mins followed by substrate addition measured after 50 mins by fluorescence assay
Sequence of Dipeptidyl peptidase 4 (P27487 whole entry): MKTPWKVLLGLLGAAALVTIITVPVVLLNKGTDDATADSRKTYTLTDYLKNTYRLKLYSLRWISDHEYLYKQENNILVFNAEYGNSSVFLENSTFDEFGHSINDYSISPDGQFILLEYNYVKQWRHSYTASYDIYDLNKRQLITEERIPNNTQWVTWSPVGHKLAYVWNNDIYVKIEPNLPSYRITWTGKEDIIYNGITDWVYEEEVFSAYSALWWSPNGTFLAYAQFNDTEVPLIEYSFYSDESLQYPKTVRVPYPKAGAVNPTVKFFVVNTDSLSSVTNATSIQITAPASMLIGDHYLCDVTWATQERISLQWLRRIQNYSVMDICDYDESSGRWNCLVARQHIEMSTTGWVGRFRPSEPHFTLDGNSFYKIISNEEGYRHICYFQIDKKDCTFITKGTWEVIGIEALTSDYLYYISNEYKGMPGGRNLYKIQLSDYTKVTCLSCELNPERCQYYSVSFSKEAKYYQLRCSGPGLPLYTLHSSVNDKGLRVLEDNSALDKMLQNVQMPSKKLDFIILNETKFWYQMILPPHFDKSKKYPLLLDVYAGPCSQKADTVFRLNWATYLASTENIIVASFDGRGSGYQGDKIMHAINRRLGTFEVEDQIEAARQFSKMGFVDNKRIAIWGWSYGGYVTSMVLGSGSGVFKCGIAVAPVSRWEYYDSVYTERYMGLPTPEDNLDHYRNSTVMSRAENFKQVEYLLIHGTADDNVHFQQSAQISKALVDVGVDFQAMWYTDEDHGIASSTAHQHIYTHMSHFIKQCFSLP

| IC50 (Prolyl endopeptidase FAP) [µM] | IC50 (Dipeptidyl peptidase 4) [µM] | Structure (SMILES) |
| --- | --- | --- |
| 78.5 |  | CC#CCn1c(N2CCC[C@@H](N)C2)nc2c1C(=O)N(Cc1cccc(C#N)c1)C1=NCCN12 |
| 14.7 |  | Cc1nc(CN2C(=O)c3c(nc(N4CCC[C@@H](N)C4)n3CC3CC3(F)F)N3CCN=C23)nc2ccccc12 (stereo partly drawn) |
| > 50 |  | CC#CCn1c(N2CCC[C@@H](N)C2)nc2c1C(=O)N(Cc1ccc(OC)cc1)C1=NCCCN12 |
| 88.3 |  | CC#CCn1c(N2CCC[C@@H](N)C2)nc2c1C(=O)N(Cc1ccc(C#N)cc1)C1=NCCN12 |
| 15.3 |  | Cc1nc(CN2C(=O)c3c(nc(N4CCC[C@@H](N)C4)n3Cc3ccccc3C#N)N3CCN=C23)nc2ccccc12 |
|  | > 10 | CC#CCn1c(N2CCC[C@@H](N)C2)nc2c1C(=O)N(CCCc1ccccc1)C1=NCCCN12 |
| 9.92 |  | Cc1nc(CN2C(=O)c3c(nc(N4CCC[C@@H](N)C4)n3Cc3cc(F)ccc3F)N3CCN=C23)nc2ccccc12 |
| 4.62 |  | Cc1nc(CN2C(=O)c3c(nc(N4CCC[C@@H](N)C4)n3Cc3cccc(F)c3)N3CCN=C23)nc2ccccc12 |
| 4.64 |  | Cc1nc(CN2C(=O)c3c(nc(N4CCC[C@@H](N)C4)n3Cc3ccccc3)N3CCN=C23)nc2ccccc12 |
| 0.107 |  | Cc1nc(CN2C(=O)c3c(nc(N4CCC[C@@H](N)C4)n3CC(=O)C3CC3)N3CCN=C23)nc2ccccc12 |
| 0.755 |  | CC(C)=CCn1c(N2CCC[C@@H](N)C2)nc2c1C(=O)N(Cc1nc(C)c3ccccc3n1)C1=NCCN12 |
| 3.05 |  | Cc1nc(CN2C(=O)c3c(nc(N4CCC[C@@H](N)C4)n3CC3CCC3)N3CCN=C23)nc2ccccc12 |
| 3.12 |  | Cc1nc(CN2C(=O)c3c(nc(N4CCC[C@@H](N)C4)n3CC3CC3)N3CCN=C23)nc2ccccc12 |
| 0.268 |  | CC#CCn1c(N2CCC[C@@H](N)C2)nc2c1C(=O)N(Cc1nc(C)c3ccccc3n1)C1=NCCCN12 |
|  | > 10 | CC#CCn1c(N2CCC[C@@H](N)C2)nc2c1c(=O)nc1n2CCCN1CCCc1ccccc1 |
| 22.4 |  | CC#CCn1c(N2CCC[C@@H](N)C2)nc2c1C(=O)N(Cc1cccc3ccccc13)C1=NCCCN12 |
| 0.367 |  | CC#CCn1c(N2CCC[C@@H](N)C2)nc2c1C(=O)N(Cc1nc(C)c3ccccc3n1)C1=NCCN12 |
| > 100 |  | CC#CCn1c(N2CCC[C@@H](N)C2)nc2c1C(=O)N(Cc1ccccc1C#N)C1=NCCN12 |
